Data as given in US20260232657A1, “MELANOCORTIN SUBTYPE-2 RECEPTOR (MC2R) ANTAGONIST FOR THE TREATMENT OF ACTH-DEPENDENT CUSHING'S SYNDROME” (CRINETICS PHARMACEUTICALS, INC., priority 2023, published 2026).

Experiments:
[1] = tested on: corticosterone; assay: ACTH excess model: rats given exogenous ACTH (1-24) via subcutaneous osmotic pump over 7 days; assay type: in vivo, rat; conditions: ACTH (1-24) osmotic pump, daily oral doses
Procedure: (§1) Disease models mimicking states of ACTH excess and hypercortisolism included rats administered exogenous ACTH (1-24) via subcutaneous osmotic pump over 7 days and mice implanted with ACTH-secreting corticotroph AtT-20 tumor cells; animals received daily oral doses of placebo or Compound 1. […] However, six days after discontinuation of the highest dose of Compound 1 (75 mg/kg for 15 days), Ang-II stimulated aldosterone was suppressed, but sodium and potassium levels were normal.

[2] = In vitro metabolism in plasma, liver microsomes and liver S9; assay type: in vitro ADME, various species (including human); conditions: liver microsomes, liver S9
Source text: (§2) In vitro studies evaluated the metabolism of Compound 1 in plasma, liver microsomes, and/or 9000 g supernatant fraction of the liver homogenate (liver S9) from various species (including human).

[3] = Repeat dose general toxicity study in dog; assay type: in vivo
Procedure: (§3) The overall nonclinical safety of Compound 1 was assessed in 28-day and 3-month repeat dose general toxicity studies in rat and dog and in a battery of in vitro and in vivo genotoxicity and safety pharmacology studies.

[4] = target: 5-HT1B receptor (Homo sapiens, UniProt P28222); assay: Screen for potential off-target activities; assay type: biochemical
Sequence of 5-HT1B receptor (P28222 whole entry): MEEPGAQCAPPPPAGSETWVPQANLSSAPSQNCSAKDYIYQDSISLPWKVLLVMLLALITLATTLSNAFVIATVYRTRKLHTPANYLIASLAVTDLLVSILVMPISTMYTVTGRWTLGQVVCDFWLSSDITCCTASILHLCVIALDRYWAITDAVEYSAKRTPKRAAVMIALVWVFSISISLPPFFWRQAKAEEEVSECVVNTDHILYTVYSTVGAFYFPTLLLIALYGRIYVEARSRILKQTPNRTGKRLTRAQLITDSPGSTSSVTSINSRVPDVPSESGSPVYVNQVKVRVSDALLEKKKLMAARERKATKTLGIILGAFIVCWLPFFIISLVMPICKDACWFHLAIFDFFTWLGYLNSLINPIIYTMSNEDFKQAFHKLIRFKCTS

[5] = Safety pharmacology studies
Procedure: as §3

[6] = tested on: corticosterone; assay: ACTH excess model: mice implanted with ACTH-secreting corticotroph AtT-20 tumor cells; assay type: in vivo, mouse; conditions: mice with AtT-20 tumor cells, daily oral doses
Procedure: as §1

[7] = tested on: other human melanocortin receptor subtypes; assay: Selectivity over other melanocortin receptor subtypes; assay type: binding; conditions: MC2R vs other subtypes
[8] = target: T1, MC2R (Homo sapiens, UniProt Q01718); assay: MC2R antagonist affinity / ACTH binding to the receptor
T1 sequence (Q01718 whole entry): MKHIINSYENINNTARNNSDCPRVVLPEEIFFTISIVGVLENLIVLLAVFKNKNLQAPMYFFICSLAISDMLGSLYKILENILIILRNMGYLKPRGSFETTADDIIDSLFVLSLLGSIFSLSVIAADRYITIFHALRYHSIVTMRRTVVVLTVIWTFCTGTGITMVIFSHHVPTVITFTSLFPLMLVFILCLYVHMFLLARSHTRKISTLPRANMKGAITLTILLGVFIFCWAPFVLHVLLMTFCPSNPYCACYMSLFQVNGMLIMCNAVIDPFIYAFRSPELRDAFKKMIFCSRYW
T1 sequence (Q8TCY5 whole entry partner): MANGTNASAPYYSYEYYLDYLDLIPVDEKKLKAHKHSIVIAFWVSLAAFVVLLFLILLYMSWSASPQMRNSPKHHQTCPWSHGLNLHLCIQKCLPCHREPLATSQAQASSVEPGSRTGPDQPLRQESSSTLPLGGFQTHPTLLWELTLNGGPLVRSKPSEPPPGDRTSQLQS

[9] = tested on: corticosterone secretion after ACTH (1-24); assay: ACTH (1-24) challenge, corticosterone secretion in rats; assay type: in vivo, rat
[10] = Effect of food on absorption; assay type: in vivo, human; conditions: oral tablet
Procedure: Participants will receive Compound 1 at the appropriate dose for their cohort as a single daily dose for 10 days at approximately 8 am. Tablets will be taken orally with 240 mL of water.

[11] = Repeat dose general toxicity study in rat; assay type: in vivo
Procedure: as §3

[12] = tested on: aldosterone; assay: ACTH- and Angiotensin-II-stimulated aldosterone in vivo
Procedure: as §1

[13] = target: T2, CYP2C8 (Homo sapiens, UniProt P10632); assay: CYP involvement in metabolic clearance; assay type: in vitro ADME
T2 sequence (P10632 1-490): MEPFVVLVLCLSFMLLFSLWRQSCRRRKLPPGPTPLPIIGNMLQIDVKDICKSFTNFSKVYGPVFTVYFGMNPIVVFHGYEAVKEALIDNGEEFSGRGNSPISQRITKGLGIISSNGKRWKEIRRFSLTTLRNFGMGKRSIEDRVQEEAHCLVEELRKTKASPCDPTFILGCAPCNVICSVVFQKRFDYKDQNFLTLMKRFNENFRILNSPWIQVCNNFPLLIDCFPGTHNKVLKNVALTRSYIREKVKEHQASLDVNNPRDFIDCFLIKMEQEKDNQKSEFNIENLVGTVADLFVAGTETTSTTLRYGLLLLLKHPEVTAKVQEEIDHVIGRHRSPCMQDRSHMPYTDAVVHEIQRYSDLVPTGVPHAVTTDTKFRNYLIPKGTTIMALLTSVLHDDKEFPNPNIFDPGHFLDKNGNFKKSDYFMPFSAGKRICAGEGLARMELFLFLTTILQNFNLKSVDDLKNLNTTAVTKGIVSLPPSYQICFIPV
Source text: as §2

[14] = target: CYP2D6 (Homo sapiens, UniProt P10635); assay: CYP involvement in metabolic clearance; assay type: in vitro ADME
Sequence of CYP2D6 (P10635 whole entry): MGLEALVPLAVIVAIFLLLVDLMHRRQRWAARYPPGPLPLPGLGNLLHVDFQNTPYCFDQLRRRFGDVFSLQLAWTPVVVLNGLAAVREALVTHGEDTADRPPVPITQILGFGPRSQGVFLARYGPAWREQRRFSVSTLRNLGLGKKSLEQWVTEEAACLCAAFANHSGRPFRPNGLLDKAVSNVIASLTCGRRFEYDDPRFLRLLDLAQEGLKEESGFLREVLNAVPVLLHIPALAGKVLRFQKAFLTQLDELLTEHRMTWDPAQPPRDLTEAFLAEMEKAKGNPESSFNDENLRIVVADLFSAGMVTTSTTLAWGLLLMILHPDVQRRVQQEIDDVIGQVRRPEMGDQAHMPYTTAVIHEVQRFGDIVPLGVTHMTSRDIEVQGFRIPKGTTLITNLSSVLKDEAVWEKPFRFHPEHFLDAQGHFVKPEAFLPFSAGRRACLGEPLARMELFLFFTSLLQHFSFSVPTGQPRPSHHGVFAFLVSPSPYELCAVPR
Source text: as §2

[15] = target: CYP3A4 (Homo sapiens, UniProt P08684); assay: CYP involvement in metabolic clearance; assay type: in vitro ADME
Sequence of CYP3A4 (P08684 whole entry): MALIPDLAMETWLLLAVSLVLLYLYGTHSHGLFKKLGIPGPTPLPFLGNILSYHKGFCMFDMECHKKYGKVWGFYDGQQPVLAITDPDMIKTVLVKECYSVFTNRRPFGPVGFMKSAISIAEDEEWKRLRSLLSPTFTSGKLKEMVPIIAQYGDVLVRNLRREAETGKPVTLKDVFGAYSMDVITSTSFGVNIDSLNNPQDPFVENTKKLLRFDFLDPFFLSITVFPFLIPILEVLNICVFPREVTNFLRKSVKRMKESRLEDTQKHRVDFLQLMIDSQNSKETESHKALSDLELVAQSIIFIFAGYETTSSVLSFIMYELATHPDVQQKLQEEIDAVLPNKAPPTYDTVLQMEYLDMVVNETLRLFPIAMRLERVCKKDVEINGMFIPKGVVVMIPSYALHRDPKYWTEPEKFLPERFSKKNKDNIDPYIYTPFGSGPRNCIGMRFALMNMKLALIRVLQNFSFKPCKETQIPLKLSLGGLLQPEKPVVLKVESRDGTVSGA
Source text: as §2

[16] = In vitro and in vivo genotoxicity studies; conditions: in vitro and in vivo battery
Procedure: as §3

[17] = target: T1, MC2R; assay: ACTH-mediated G-protein activation and cAMP production; assay type: biochemical
[18] = Previous study in healthy volunteers; assay type: in vivo, human
Source text: It has therefore been identified as an AESI in this study and may lead to dose limiting toxicity.

[19] = six days after discontinuation of 75 mg/kg for 15 days

Compound: CCOc1ccccc1-c1ccc(N2CCN(C(=O)C3(C(F)(F)F)CCC3)C[C@H]2CC)c(C(=O)N[C@@H]2CN3CCC2CC3)n1 [Compound 1, 6-(2-ethoxyphenyl)-3-((R)-2-ethyl-4-(1-(trifluoromethyl)cyclobutane-1-carbonyl)piperazin-1-yl)-N—((S)-quinuclidin-3-yl) picolinamide]
- adrenal gland effect [1]: dose-dependent adrenal gland atrophy
- decrease of corticosterone values on Days 1 and 7 (maximum) [1]: ≤ 92%
- primary metabolic pathways involved in metabolic clearance [2]: oxidative metabolism, resulting in formation of hydroxylated and desmethyl metabolites
- target organ toxicity finding ([3]; 3-month dog study): adrenal and liver atrophy
- adrenal gland and liver findings with hydrocortisone supplementation ([3]; dog): mitigated with hydrocortisone supplementation
- selectivity for hMC2R over 5-HT1B [4]: more than 2200 fold
- agonist activity against the 5-HT1B receptor ([4]; off-target screen): no agonist activity
- antagonist activity against the 5-HT1B receptor ([4]; off-target screen): weak antagonist
- adverse effects on core organ systems (cardiovascular, central nervous, respiratory) [5]: No findings
- adrenal gland effect [6]: dose-dependent adrenal gland atrophy
- decrease of corticosterone values on Days 1 and 7 (maximum) [6]: ≤ 92%
- selectivity over other human melanocortin receptor subtypes [7]: > 2900 fold
- ACTH binding to the receptor [8]: potently blocked
- Ki [8]: < 10 nM
- corticosterone secretion after 1 μg/kg ACTH (1-24) ([9]; oral, 3 and 10 mg/kg, male and female rats): dose-dependently suppressed
- corticosterone after ACTH administration at 1, 4, 24, and 48 hours after a single dose ([9]; single dose, time course): dose-dependent suppression of corticosterone at 1 and 4 hours only
- effect of food on absorption [10]: minimal effect of food on absorption
- target organ toxicity finding ([11]; 28-day rat study): foamy macrophages in the lungs
- consistency of rat lung findings with drug-induced PLD ([11]; rat lung): not to be consistent with drug-induced PLD
- Angiotensin-II stimulation of aldosterone ([12]; during treatment): did not affect
- ACTH-stimulated aldosterone levels ([12]; in vivo): reduced
- Ang-II stimulated aldosterone after discontinuation [12, 19]: suppressed
- sodium and potassium levels after discontinuation [12, 19]: normal
- role of CYP2C8 in catalyzing oxidative metabolism [13]: may also have a minor contribution
- role of CYP2D6 in catalyzing oxidative metabolism [14]: may also have a minor contribution
- role of CYP3A4 in catalyzing oxidative metabolism [15]: plays a key role
- genotoxic risk [16]: No findings indicating significant genotoxic risk
- ACTH-mediated G-protein activation and subsequent cAMP production [17]: potently blocked
- adverse event observed during treatment [18]: Glucocorticoid deficiency was observed
